Assay results published in US20250064846A1, “TREATMENT AND PREVENTION OF TRIGEMINAL NEURALGIA” (THE JOHNS HOPKINS UNIVERSITY, priority 2022, published 2025).

Legend:
[1] = tested on: NRF2; assay: NRF2/MAP2 immunostaining in trigeminal ganglia; type: in vivo, mouse; conditions: immunohistochemistry 24 h after the fourth dose; 10 mg/kg, i.p.
[2] = tested on: NRF2 target genes; assay: Upregulation of canonical NRF2 target genes (no method given); type: cell-based
[3] = tested on: NRF2 target genes; assay: RNA-sequencing of primary human dermal fibroblasts; type: cell-based; conditions: 48 hours, 0.25 μM JQ-1
Experimental: RNA-sequencing RNA sequencing was performed as previously described (See Shin, J. Y. et al. Sci Transl Med 11, eaaw0790 (2019)). To assess the transcriptional signature of JQ-1, total RNA was isolated from three independent human fibroblast lines after 48 hours of treatment with DMSO or 0.25 μM JQ-1 using TRizol and RNeasy isolation columns (Qiagen) as per the manufacturer's instructions. DNA was digested with DNase treatment. All samples had RNA integrity numbers 9.60 or higher as measured with an Agilent 2100 Bioanalyzer. mRNA was enriched by poly-A selection, prepped using an Illumina TruSeq mRNA sample preparation kit, and sequenced by Illumina HiSeq 2000.
Differential Gene Expression and Pathway Enrichment Analyses Differential gene expression analysis was performed using BioJupies 126.

[4] = tested on: NRF2 target genes; conditions: corneal fibroblasts and monocytes; cited from earlier work

With `C=C1C[C@@H]2[C@H](CC[C@]3(C)C(=O)CC[C@@H]23)[C@@]2(C)C=CC(=O)C=C12` [exemestane, 6-methylenandrosta-1,4-diene-3,17-dione] the “NRF2 expression in neurons of the trigeminal ganglion” value [1] was “robustly increased NRF2 expression” and the “induction of the canonical NRF2 target Nqo1” value [2] was “upregulated the canonical NRF2 target Ngo1”.
In the case of `Cc1sc2c(c1C)C(c1ccc(Cl)cc1)=N[C@@H](CC(=O)OC(C)(C)C)c1nnc(C)n1-2` [JQ-1, (S)-tert-butyl 2-(4-(4-chlorophenyl)-2,3,9-trimethyl-6H-thieno[3,2-f][1,2,4]triazolo[4,3-a][1,4]diazepin-6-yl)acetate], the “expression of canonical NRF2 target genes (NQO1, FTL, PRDX1, TXN, EGR1)” value [3] is given as “upregulated a number of canonical NRF2 target genes”, the “rank of the NRF2 pathway in gene ontology and genetic network analyses” value [3] is given as “second most upregulated pathway” and the “upregulation of NQO1 and HMOX1” value [4] is given as “upregulates NQO1 and HMOX1”.
In the case of `C[S+]([O-])CCCCN=C=S` (stereo not drawn) [sulforaphane, 1-isothiocyanato-4-(methanesulfinyl)butane], the “NRF2 expression in neurons of the trigeminal ganglion” value [1] is reported as “robustly increased NRF2 expression”.
